Test results taken from patent US20240317722A1, “HETEROARYL-3-PIPERIDINEDIONE COMPOUND AND USE THEREOF” (Medshine Discovery Inc., priority 2021, published 2024).

Key:
[1] = Pharmacokinetics of the compound in rats; type: in vivo, SD rats
Source text: In this study, SD male rats were selected as the test animals, and the LC/MS/MS method was used to quantitatively determine the drug concentration at different time points in the plasma of rats intravenously or orally administered the test compound, so as to evaluate the pharmacokinetic profile of the test compound in rats.
Sprague Dawley (SD) rats (male, 200-300 g, 7-10 weeks old, Beijing Vital River).
A clear solution or suspension of the test compound was intravenously injected into SD rats (fasted overnight) via tail or given to SD rats (fasted overnight) by gavage. For intravenous injection administration, blood was collected from the jugular vein at 0 h (before administration) and 0.083, 0.25, 0.5, 1, 2, 4, 6, 8, and 24 h after administration. Each sample was collected about 0.25 mL. Heparin sodium was added to anti-coagulate. Blood samples were collected and placed on wet ice, and centrifuged within 1 hour to separate the plasma (centrifugation conditions: 6000 g, 3 minutes, 2-8° C.). Plasma samples were stored in a −80° C. refrigerator before analysis; For oral gavage administration, blood was collected from the jugular vein at 0 h (before administration) and 0.083, 0.25, 0.5, 1, 2, 4, 6, 8, and 24 h after administration. Each sample was collected about 0.25 mL. Heparin sodium was added to anti-coagulate. Blood samples were collected and placed on wet ice, and centrifuged within 1 hour to separate the plasma (centrifugation conditions: 6000 g, 3 minutes, 2-8° C.). Plasma samples were stored in an −80° C. refrigerator before analysis. Through blood drug concentration data at different time points, Phoenix WinNonlin8.2.0 was used to calculate pharmacokinetic parameters, providing parameters such as AUC0-t, AUC0-∞, MRT0-∞, Cmax, Tmax, and T1/2, etc. and their mean and standard deviation.

MDA-MB-231 = assay: Anti-proliferative effect in MDA-MB-231 (CellTiter-Glo); type: cell-based, human; conditions: MDA-MB-231, 3 days
Protocol: This assay studied the inhibitory effect of the compounds on cell proliferation by detecting the effect of the test compounds on the in vitro activity of tumor cells MV4-11 and MDA-MB-231.
The tumor cell lines were cultured in an incubator at 37° C., 5% CO2 or 0% CO2according to the above culture conditions. The cells were periodically passaged, and cells in logarithmic growth phase were taken for plating. • 2. Cell plating • (1). Cells were stained with trypan blue and viable cells were counted. • (2).
• (3). 90 μL of cell suspension was added to each well of the culture plate, and culture medium without cells was added to the blank control well. • (4). The plate was incubated overnight in an incubator at 37° C., 5% CO2 or 0% CO2, and 100% relative humidity. • 3. Preparation of a compound storage plate
Preparation of a 400× compound storage plate: The compounds were diluted with DMSO in a gradient from the highest concentration to the lowest concentration. The plates were prepared freshly at each time for use. • 4. Preparation of 10× compound working solution and treatment of cells with compounds • (1). Preparation of 10× compound working solution: compound or DMSO was added, and the well content was mixed to uniform by aspiration and expelling with pipette. 78 μL of cell culture medium was added to a 96-well plate with a V-shaped bottom. 2 μL of the compound from the 400× compound storage plate was added to the cell culture medium in the 96-well plate. 2 μL of DMSO was added to the vehicle control and the blank control. After adding compound or DMSO, the well content was mixed to uniform by aspiration and expelling with pipette. • (2). Dosing: 10 μL of 10× compound working solution was added to the cell culture plate. 10 μL of DMSO-cell culture mix solution was added to the vehicle control and blank control. • (3). The 96-well cell plate was placed back into the incubator and cultured for 3 days. • 5. CellTiter-Glo luminescence cell viability detection
The following steps were performed according to the instruction of Promega CellTiter-Glo luminescence cell viability detection kit (Promega-G7573). • (1). The CellTiter-Glo buffer was thawed and allowed to stand to reach room temperature; • (2). CellTiter-Glo substrate was allowed to stand to reach room temperature; • (3). 10 mL of CellTiter-Glo buffer was added to CellTiter-Glo substrate in a bottle to dissolve the substrate to formulate CellTiter-Glo working solution; • (4). The working solution was vortexed slowly for fully dissolution; • (5). The cell culture plates were taken out and allowed to stand for 30 minutes to equilibrate to room temperature; • (6). 50 μL (equal to half the volume of cell culture solution in each well) of Cell Titer-Glo working solution was added into each well. The cell plate was wrapped with aluminum foil to protect the cell plate from light; • (7). The culture plates were shaken on an orbital shaker for 2 minutes to induce cell lysis; • (8). The culture plates were left at room temperature for 10 minutes to stabilize the luminescence signal; • (9). The luminous signal was detected on the 2104 En Vision plate reader. • 6. Data analysis
The following formula was used to calculate the inhibition rate (IR) of the test compounds: IR (%)=(RLU of the vehicle control−RLU of the compound)/(RLU of the vehicle control−RLU of the blank control)*100%. The inhibition rates of the compounds at different concentrations were calculated in Excel, and then GraphPad Prism software was used to graph the inhibition curves and calculate the relevant parameters, including the minimum inhibition rate, maximum inhibition rate and IC50.

[2] = administration by gavage (10 mg/kg)

Structure (SMILES): COCCOc1cc(NC(=O)NCc2ccc3c(C4CCC(=O)NC4=O)coc3c2)cc(Cl)c1C (stereo not shown) [WX005]
- Area under the plasma concentration-time curve (0-inf) [1, 2]: 264.34 µM·h
- Peak concentration [1, 2]: 14.4 µM
- Time to peak [1, 2]: 5.33 h
- Area under the plasma concentration-time curve (0-inf) ([1]; intravenous injection (2 mg/kg)): 464.10 µM·h
- bioavailability ([1]; male, Sprague-Dawley, rat, plasma, PO 10 mg/kg vs IV 2 mg/kg, read-out: Bioavailability F): 11.4%
- clearance ([1]; male, Sprague-Dawley, rat, plasma, intravenous injection (2 mg/kg)): 0.145 mL/min/kg
- Vd ([1]; male, Sprague-Dawley, rat, plasma, intravenous injection (2 mg/kg), read-out: Apparent volume of distribution): 0.121 L/kg
- half-life ([1]; male, Sprague-Dawley, rat, plasma, intravenous injection (2 mg/kg), read-out: Elimination half-life (converted)): 11.1 h
- IC50 (MDA-MB-231; Homo sapiens, 72 h): 4.7 nM
- Max. IR (maximum inhibition rate) (MDA-MB-231): 80.7%
